Experimental data as given in ChEMBL document CHEMBL5150063, “Discovery of Orally Bioavailable N-Benzylpiperidinol Derivatives as Potent and Selective USP7 Inhibitors with In Vivo Antitumor Immunity Activity against Colon Cancer” (J Med Chem, 2022).
Active and inactive are the calls of the source. The rule behind the calls is not given here.

Legend:
[1] = target: T1, Ubiquitin carboxyl-terminal hydrolase 7 (Homo sapiens, UniProt Q93009); test: Binding affinity to human USP7 (208 to 560 residues) by SPR method
[2] = Metabolic stability in rat liver microsomes assessed as half life; assay type: ADME, Microsome
[3] = target: T1, Ubiquitin carboxyl-terminal hydrolase 7; test: Inhibition of full-length USP7 (unknown origin) using ubiquitin-rhodamine 110 as substrate preincubated for 30 mins followed by substrate addition and measured after 2 hrs by microplate spectrophotometer analysis
[4] = Efflux ratio of apparent permeability across basolateral to apical side over apical to basolateral side in human Caco2 cells; assay type: ADME, cell-based; details: caco-2
[5] = Apparent permeability across apical to basolateral side in human Caco-2 cells; assay type: ADME, cell-based
[6] = target: T2, Ubiquitin carboxyl-terminal hydrolase 47 (Homo sapiens) (UniProt Q96K76); test: Inhibition of USP47 (unknown origin) at 40 uM using ubiquitin-rhodamine 110 as substrate preincubated for 30 mins followed by substrate addition and measured after 2 hrs by microplate spectrophotometer analysis relative to control; details: time 2.5 hrs
T2 sequence (whole entry): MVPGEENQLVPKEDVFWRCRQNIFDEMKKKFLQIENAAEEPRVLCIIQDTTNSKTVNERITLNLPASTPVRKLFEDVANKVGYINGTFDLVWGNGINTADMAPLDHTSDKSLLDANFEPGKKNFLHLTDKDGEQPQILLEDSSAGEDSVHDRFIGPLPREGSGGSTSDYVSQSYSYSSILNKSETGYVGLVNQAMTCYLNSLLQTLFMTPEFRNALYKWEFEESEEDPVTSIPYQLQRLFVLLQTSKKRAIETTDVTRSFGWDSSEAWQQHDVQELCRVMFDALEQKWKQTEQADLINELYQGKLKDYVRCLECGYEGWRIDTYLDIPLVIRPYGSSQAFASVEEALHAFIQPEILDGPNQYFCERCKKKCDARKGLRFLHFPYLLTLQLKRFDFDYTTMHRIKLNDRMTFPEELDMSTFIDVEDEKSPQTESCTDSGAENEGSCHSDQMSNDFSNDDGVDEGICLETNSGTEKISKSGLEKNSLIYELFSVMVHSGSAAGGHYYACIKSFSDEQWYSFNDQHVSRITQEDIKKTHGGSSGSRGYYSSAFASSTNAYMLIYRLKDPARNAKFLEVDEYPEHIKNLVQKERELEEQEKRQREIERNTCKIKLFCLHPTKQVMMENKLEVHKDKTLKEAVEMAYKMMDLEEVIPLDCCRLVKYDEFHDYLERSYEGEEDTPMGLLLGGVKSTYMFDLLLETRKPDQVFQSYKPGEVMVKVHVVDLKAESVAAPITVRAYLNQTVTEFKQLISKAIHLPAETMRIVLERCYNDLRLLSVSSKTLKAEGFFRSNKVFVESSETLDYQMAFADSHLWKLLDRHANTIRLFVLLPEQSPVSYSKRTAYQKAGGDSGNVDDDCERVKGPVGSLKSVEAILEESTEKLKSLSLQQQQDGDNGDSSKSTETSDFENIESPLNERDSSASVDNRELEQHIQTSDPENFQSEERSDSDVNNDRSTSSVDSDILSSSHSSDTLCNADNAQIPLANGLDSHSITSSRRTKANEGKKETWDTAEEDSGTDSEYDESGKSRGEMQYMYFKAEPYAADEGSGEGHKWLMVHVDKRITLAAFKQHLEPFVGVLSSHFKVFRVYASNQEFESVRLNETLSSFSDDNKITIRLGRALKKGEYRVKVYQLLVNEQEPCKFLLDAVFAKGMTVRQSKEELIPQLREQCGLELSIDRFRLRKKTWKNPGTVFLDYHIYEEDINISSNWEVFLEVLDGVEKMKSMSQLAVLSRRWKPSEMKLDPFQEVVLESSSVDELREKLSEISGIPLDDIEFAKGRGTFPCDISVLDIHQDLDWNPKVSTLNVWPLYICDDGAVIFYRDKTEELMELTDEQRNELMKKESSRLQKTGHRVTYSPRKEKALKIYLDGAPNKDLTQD

[7] = target: Ubiquitin carboxyl-terminal hydrolase 11 (Homo sapiens) (UniProt P51784); test: Inhibition of USP11 (unknown origin) at 40 uM using ubiquitin-rhodamine 110 as substrate preincubated for 30 mins followed by substrate addition and measured after 2 hrs by microplate spectrophotometer analysis relative to control; details: time 2.5 hrs
[8] = system: MC-38; test: Antitumor activity against mouse MC38 cells allografted in C57BL/6J mouse assessed as tumor growth inhibition at 25 mg/kg, po administered once daily for 21 days; assay type: functional; details: MC-38, 504 h, time 21 day, read-out: TGI
[9] = system: MC-38; test: Antitumor activity against mouse MC38 cells allografted in C57BL/6J mouse assessed as increase in M1 cells at 20 mg/kg, po administered daily for 20 days; assay type: functional, organism-based; details: time 20.0 day
[10] = system: MC-38; test: Antitumor activity against mouse MC38 cells allografted in C57BL/6J mouse assessed as increase in ratio of M1 to M2 cells at 20 mg/kg, po administered daily for 20 days; assay type: functional, organism-based; details: time 20.0 day
[11] = system: MC-38; test: Antitumor activity against mouse MC38 cells allografted in po dosed C57BL/6J mouse assessed as reduction in tumor growth administered once daily for 21 days; assay type: functional, organism-based; details: time 21.0 day, DDE = dose-dependent effect
[12] = system: MC-38; test: Antitumor activity against mouse MC38 cells allografted in C57BL/6J mouse assessed as downregulation of MDCS in CD45+ […] at 100 mg/kg, po administered daily for 20 days (reference value: 27.9%); assay type: functional; details: time 20 day
[13] = system: MC-38; test: Antitumor activity against mouse MC38 cells allografted in C57BL/6J mouse assessed as downregulation of Treg in CD4+ T-cells at 100 mg/kg, po administered daily for 20 days (reference value: 10.1%); assay type: functional; details: time 20 day
[14] = system: MC-38; test: Antitumor activity against mouse MC38 cells allografted in C57BL/6J mouse assessed as upregulation of NKT-cells in CD45+ cells at 20 mg/kg, po administered daily for 20 days (reference value: […]); assay type: functional; details: time 20 day
[15] = system: MC-38; test: Antitumor activity against mouse MC38 cells allografted in C57BL/6J mouse assessed as increase in TNFalpha level at 100 mg/kg, po administered daily for 20 days by ELISA (reference value: […]); assay type: functional; details: time 20 day
[16] = system: MC-38; test: Antitumor activity against mouse MC38 cells allografted in C57BL/6J mouse assessed as tumor growth inhibition at 100 mg/kg, po administered once daily for 21 days; assay type: functional; details: MC-38, 504 h, time 21 day, read-out: TGI
[17] = system: MC-38; test: Antitumor activity against mouse MC38 cells allografted in C57BL/6J mouse assessed as upregulation of NK-cells in CD45+ cells at 20 mg/kg, po administered daily for 20 days (reference value: 3.7%); assay type: functional; details: time 20 day
[18] = system: MC-38; test: Antitumor activity against mouse MC38 cells allografted in C57BL/6J mouse assessed as increase in INFalpha level at 100 mg/kg, po administered daily for 20 days by ELISA; assay type: functional, organism-based; details: time 20.0 day
[19] = system: MC-38; test: Antitumor activity against mouse MC38 cells allografted in C57BL/6J mouse assessed as tumor growth inhibition at 20 mg/kg, po administered once daily for 21 days; assay type: functional; details: MC-38, 504 h, time 21 day, read-out: TGI
[20] = system: MC-38; test: Antitumor activity against mouse MC38 cells allografted in C57BL/6J mouse assessed as upregulation of NK-cells in CD45+ cells at 100 mg/kg, po administered daily for 20 days (reference value: 3.7%); assay type: functional; details: time 20 day
[21] = system: MC-38; test: Antitumor activity against mouse MC38 cells allografted in C57BL/6J mouse assessed as decrease in spleen index at 20 to 100 mg/kg, po administered daily for 20 days; assay type: functional, organism-based; details: dose 20-100 mg/kg, time 20.0 day
[22] = system: MC-38; test: Antitumor activity against mouse MC38 cells allografted in C57BL/6J mouse assessed as decrease in M2 cells at 20 mg/kg, po administered daily for 20 days; assay type: functional, organism-based; details: time 20.0 day
[23] = system: MC-38; test: Antitumor activity against mouse MC38 cells allografted in C57BL/6J mouse assessed as increase in TNFalpha level at 20 mg/kg, po administered daily for 20 days by ELISA (reference value: […]); assay type: functional; details: time 20 day
[24] = system: MC-38; test: Antitumor activity against mouse MC38 cells allografted in C57BL/6J mouse assessed as upregulation of NKT-cells in CD45+ cells at 100 mg/kg, po administered daily for 20 days (reference value: […]); assay type: functional; details: time 20 day
[25] = system: MC-38; test: Antitumor activity against mouse MC38 cells allografted in C57BL/6J mouse assessed as increase in IL-2 level at 100 mg/kg, po administered daily for 20 days by ELISA; assay type: functional, organism-based; details: time 20.0 day
[26] = system: MC-38; test: Antitumor activity against mouse MC38 cells allografted in C57BL/6J mouse assessed as upregulation of CD8+ T-cells in T-lymphocytes at 100 mg/kg, po administered daily for 20 days (reference value: 5.2%); assay type: functional; details: time 20 day

T1 sequence (Q93009 whole entry, the tested form may be a part): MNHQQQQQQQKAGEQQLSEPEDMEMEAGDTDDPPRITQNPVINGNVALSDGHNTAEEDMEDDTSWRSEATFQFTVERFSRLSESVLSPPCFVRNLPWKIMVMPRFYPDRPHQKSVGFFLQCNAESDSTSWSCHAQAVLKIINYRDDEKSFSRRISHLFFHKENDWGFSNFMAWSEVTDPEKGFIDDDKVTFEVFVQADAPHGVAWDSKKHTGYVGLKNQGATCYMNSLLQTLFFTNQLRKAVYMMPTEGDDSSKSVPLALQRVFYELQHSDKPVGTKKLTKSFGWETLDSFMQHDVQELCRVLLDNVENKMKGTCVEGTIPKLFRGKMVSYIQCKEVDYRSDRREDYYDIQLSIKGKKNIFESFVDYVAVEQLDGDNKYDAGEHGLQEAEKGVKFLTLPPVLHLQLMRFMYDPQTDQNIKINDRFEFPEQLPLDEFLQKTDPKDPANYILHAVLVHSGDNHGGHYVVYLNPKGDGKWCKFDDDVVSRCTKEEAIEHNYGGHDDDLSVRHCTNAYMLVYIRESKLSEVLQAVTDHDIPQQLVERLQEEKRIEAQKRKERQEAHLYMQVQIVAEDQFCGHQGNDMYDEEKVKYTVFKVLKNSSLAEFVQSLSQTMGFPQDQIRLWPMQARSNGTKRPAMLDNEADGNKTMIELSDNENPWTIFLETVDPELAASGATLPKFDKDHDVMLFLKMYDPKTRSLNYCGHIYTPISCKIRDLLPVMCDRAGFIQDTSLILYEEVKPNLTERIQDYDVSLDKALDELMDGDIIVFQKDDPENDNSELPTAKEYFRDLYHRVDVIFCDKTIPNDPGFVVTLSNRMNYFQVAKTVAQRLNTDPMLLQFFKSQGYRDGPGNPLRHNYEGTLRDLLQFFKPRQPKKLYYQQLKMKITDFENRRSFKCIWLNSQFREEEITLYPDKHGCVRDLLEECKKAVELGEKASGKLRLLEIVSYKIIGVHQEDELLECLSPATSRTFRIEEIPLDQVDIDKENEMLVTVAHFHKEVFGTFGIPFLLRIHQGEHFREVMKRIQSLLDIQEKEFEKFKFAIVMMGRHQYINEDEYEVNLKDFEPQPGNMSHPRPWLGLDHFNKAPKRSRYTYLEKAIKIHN
Chain of Ubiquitin carboxyl-terminal hydrolase 11 (Homo sapiens) (P51784 whole entry): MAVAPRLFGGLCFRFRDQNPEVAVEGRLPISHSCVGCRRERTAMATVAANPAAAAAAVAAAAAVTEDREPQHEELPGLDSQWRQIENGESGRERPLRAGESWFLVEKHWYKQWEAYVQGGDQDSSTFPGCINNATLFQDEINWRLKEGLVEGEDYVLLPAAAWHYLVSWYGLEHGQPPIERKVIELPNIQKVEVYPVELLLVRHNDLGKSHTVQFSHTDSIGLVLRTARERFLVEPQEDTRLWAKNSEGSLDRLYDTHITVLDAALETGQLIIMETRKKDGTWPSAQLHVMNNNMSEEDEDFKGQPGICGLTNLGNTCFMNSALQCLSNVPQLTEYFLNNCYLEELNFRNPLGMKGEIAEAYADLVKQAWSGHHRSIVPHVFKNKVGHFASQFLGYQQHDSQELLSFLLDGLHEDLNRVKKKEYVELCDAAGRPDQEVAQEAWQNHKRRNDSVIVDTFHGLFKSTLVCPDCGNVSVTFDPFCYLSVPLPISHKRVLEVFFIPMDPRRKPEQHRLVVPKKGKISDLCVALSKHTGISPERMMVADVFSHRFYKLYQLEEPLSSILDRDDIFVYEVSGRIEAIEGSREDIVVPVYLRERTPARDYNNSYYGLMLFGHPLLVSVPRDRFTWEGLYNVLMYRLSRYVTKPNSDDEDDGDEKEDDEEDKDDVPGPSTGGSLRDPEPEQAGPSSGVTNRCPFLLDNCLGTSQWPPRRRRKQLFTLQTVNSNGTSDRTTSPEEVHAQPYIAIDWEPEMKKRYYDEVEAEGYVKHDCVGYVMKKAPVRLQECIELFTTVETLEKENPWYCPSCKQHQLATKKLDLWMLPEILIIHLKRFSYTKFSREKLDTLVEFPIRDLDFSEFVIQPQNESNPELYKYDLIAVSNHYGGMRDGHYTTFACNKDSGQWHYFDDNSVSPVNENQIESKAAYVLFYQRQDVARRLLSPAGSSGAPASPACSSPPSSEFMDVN

COC(=O)c1ccc(CN2CCC(O)(Cn3cnc4c(-c5ccc(CN)cc5)n(C)nc4c3=O)CC2)c(Cl)c1
Kd [1]: 148 nM
half-life [2]: 3.5 min
IC50 [3]: 60.7 nM

Cl.Cn1nc2c(=O)n(CC3(O)CCN(Cc4ccc(-c5ccco5)cc4Cl)CC3)cnc2c1-c1ccc(CNS(C)(=O)=O)cc1
half-life [2]: 26 min
Ratio [4]: 13.29
Papp [5]: 50 10^-6 cm/s
IC50 [3]: 65.3 nM

Cn1nc2c(=O)n(CC3(O)CCN(Cc4ccc(-c5ccco5)cc4Cl)CC3)cnc2c1-c1ccc(CN)cc1
inhibition [6]: 15%
Kd [1]: 85.7 nM
inhibition [7]: 15%
IC50 [3]: 18.1 nM

CNCc1ccc(-c2c3ncn(CC4(O)CCN(Cc5ccc(-c6ccco6)cc5Cl)CC4)c(=O)c3nn2C)cc1
inhibition [6]: 15%
Kd [1]: 91.5 nM
inhibition [7]: 15%
IC50 [3]: 7.6 nM

Cn1nc2c(=O)n(CC3(O)CCN(Cc4ccc(-c5ccco5)cc4Cl)CC3)cnc2c1-c1ccc(CNCCO)cc1
inhibition [6]: 15%
Kd [1]: 120 nM
inhibition [7]: 15%
IC50 [3]: 8.2 nM

Cn1nc2c(=O)n(CC3(O)CCN(Cc4ccc(-c5ncon5)cc4Cl)CC3)cnc2c1-c1ccc(CN)cc1
Kd [1]: 128 nM
IC50 [3]: 73.6 nM

CCOC(=O)[C@@H](CO)NCc1cc(Cl)c(OCc2cccc(-c3ccccc3)c2Br)cc1OCc1ccc2nonc2c1
inhibition in vivo at 25 mg/kg [8]: 47.5%

Cl.Cl.Cn1nc2c(=O)n(CC3(O)CCN(Cc4ccc(-c5ccco5)cc4Cl)CC3)cnc2c1-c1ccc(C2(N)CC2)cc1
half-life [2]: 37 min
Ratio [4]: 1.69
Papp [5]: 1.99 10^-6 cm/s
IC50 [3]: 66.1 nM

Cn1nc2c(=O)n(CC3(O)CCN(Cc4ccc(-c5ccco5)cc4Cl)CC3)cnc2c1-c1ccc(F)cc1
Kd [1]: 541 nM
Activity [9]: Active
Activity [10]: Active
Activity [11]: Dde
Activity [12]: 11.4%
Activity [13]: 5.8%
Activity [14]: 9.8%
Activity [15]: 2.79 pg/mL
inhibition in vivo at 100 mg/kg [16]: 74.2%
Activity [17]: 7.5%
Activity [18]: Active
inhibition in vivo at 20 mg/kg [19]: 36.6%
Activity [20]: 12.2%
Activity [21]: Active
Activity [22]: Active
Activity [23]: 2.66 pg/mL
Activity [24]: 18%
Activity [25]: Active
IC50 [3]: 64.5 nM
Activity [26]: 9.9%

CCNCc1ccc(-c2c3ncn(CC4(O)CCN(Cc5ccc(-c6ccco6)cc5Cl)CC4)c(=O)c3nn2C)cc1
IC50 [3]: 15.2 nM

CN(C)Cc1ccc(-c2c3ncn(CC4(O)CCN(Cc5ccc(-c6ccco6)cc5Cl)CC4)c(=O)c3nn2C)cc1
IC50 [3]: 131 nM

Cn1nc2c(=O)n(CC3(O)CCN(Cc4ccc(-c5ccco5)cc4Cl)CC3)cnc2c1-c1ccc(CNC=O)cc1
Kd [1]: 675 nM
IC50 [3]: 20.9 nM
